Like-named read-outs stand apart in the source and are kept apart here.
Experiments:
human CB1 receptors = molecular target: T1, human CB1 receptors (Homo sapiens, UniProt P21554); assay: cAMP assay; format: cell-based
T1 construct: expressed in transfected cells; host or cells: CHO cells
Procedure, shortened: (§1)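 CHO cells expressing human CB1 or CB2 were preincubated 30 min at 30 °C in Krebs Ringer bicarbonate buffer with 1 mM IBMX, then exposed to compounds for 30 min at 30 °C. cAMP was measured by time-resolved FRET against a cAMP standard curve, and EC50 values were derived.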

human CB2 receptors = molecular target: T2, human CB2 receptors (Homo sapiens, UniProt P34972); assay: cAMP assay; format: cell-based
T2 construct: expressed in transfected cells; host or cells: CHO cells
Procedure, shortened: as §1

[1] = functional cAMP assay, CHO cells expressing human CB2, read-out: human CB2 EC50

T1 sequence (P21554 whole entry): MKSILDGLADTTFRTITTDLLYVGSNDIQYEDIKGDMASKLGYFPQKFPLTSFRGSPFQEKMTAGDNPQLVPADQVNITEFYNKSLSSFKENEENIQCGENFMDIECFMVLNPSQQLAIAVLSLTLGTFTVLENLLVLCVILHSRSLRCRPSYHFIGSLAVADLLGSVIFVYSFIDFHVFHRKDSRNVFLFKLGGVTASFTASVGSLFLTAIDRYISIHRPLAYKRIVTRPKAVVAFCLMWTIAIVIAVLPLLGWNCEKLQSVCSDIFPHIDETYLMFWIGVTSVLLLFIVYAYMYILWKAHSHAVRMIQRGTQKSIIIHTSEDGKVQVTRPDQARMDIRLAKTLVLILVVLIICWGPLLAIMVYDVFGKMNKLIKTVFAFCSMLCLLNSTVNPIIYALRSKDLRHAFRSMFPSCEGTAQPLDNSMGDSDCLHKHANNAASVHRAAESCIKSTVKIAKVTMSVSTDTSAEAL
T2 sequence (P34972 whole entry): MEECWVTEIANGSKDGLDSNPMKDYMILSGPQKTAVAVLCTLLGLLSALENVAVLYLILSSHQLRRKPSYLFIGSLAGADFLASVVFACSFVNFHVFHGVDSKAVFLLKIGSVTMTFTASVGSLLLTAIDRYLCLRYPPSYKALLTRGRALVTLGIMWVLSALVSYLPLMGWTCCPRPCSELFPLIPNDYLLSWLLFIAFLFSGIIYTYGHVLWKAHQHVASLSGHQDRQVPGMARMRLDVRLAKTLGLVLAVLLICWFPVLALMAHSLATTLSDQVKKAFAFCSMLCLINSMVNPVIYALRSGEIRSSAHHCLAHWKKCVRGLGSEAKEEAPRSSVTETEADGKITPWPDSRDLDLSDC

| Compound | EC50 (human CB1 receptors) [nM] | EC50 (human CB2 receptors) [nM] | EC50 (human CB2 receptors; [1]) [nM] |
| --- | --- | --- | --- |
| CC(C)(C)c1nc(N2CCC(F)(F)C2)c2nn([C@@H]3CCOC3)nc2n1 [Example 45, 5-tert-Butyl-7-(3,3-difluoro-pyrrolidin-1-yl)-2-(R)-tetrahydro-furan-3-yl-2H-[1,2,3]triazolo[4,5-d]pyrimidine] | > 10000 | 7.6 |  |
| CC(C)(C)c1nc(N2CCC(F)(F)C2)c2nn(Cc3cccc(Cl)c3Cl)nc2n1 [Example 9, 5-tert-Butyl-2-(2,3-dichloro-benzyl)-7-(3,3-difluoro-pyrrolidin-1-yl)-2H-[1,2,3]triazolo[4,5-d]pyrimidine] | > 10000 | 3.4 |  |
| CC(C)(C)c1nc(N2CCC(F)(F)C2)c2nn(Cc3ccccc3OC(F)(F)F)nc2n1 [Example 24, 5-tert-Butyl-7-(3,3-difluoro-pyrrolidin-1-yl)-2-(2-trifluoromethoxy-benzyl)-2H-[1,2,3]triazolo[4,5-d]pyrimidine] | > 10000 | 0.4 |  |
| CC(C)(C)c1nc(N2CC[C@](C)(O)C2)c2nn(Cc3ncccc3Cl)nc2n1 [Example 127-a, (S)-1-[5-tert-Butyl-2-(3-chloro-pyridin-2-ylmethyl)-2H-[1,2,3]triazolo[4,5-d]pyrimidin-7-yl]-3-methyl-pyrrolidin-3-ol] | 757 | 5.1 |  |
| Cn1nnnc1Cn1nc2nc(NC(C)(C)C)nc(N3CCC(F)(F)C3)c2n1 [Example 139, tert-Butyl-[7-(3,3-difluoro-pyrrolidin-1-yl)-2-(1-methyl-1H-tetrazol-5-ylmethyl)-2H-[1,2,3]triazolo[4,5-d]pyrimidin-5-yl]-amine] | > 10000 | 28.1 |  |
| CC(=O)N[C@H]1CCN(c2nc(OCC(C)(C)C)nc3nn(Cc4ccccc4Cl)nc23)C1 [Example 134, N—{(S)-1-[2-(2-Chloro-benzyl)-5-(2,2-dimethyl-propoxy)-2H-[1,2,3]triazolo[4,5-d]pyrimidin-7-yl]-pyrrolidin-3-yl}-acetamide] | > 10000 |  | 682 |
| CC(C)(C)c1nc(N2CCC(F)(F)C2)c2nn(Cc3cccc(Cl)c3)nc2n1 [Example 7, 5-tert-Butyl-2-(3-chloro-benzyl)-7-(3,3-difluoro-pyrrolidin-1-yl)-2H-[1,2,3]triazolo[4,5-d]pyrimidine] | > 10000 | 4.1 |  |
| Cn1nnnc1Cn1nc2nc(NC(C)(C)C)nc(N3CC[C@H](O)C3)c2n1 [Example 145, (S)-1-[5-tert-Butylamino-2-(1-methyl-1H-tetrazol-5-ylmethyl)-2H-[1,2,3]triazolo[4,5-d]pyrimidin-7-yl]-pyrrolidin-3-ol] | > 10000 |  | 1090 |
| Cn1nnnc1Cn1nc2nc(OCC(C)(C)C)nc(N3CCC(F)(F)C3)c2n1 [Example 112, 7-(3,3-Difluoro-pyrrolidin-1-yl)-5-(2,2-dimethyl-propoxy)-2-(1-methyl-1H-tetrazol-5-ylmethyl)-2H-[1,2,3]triazolo[4,5-d]pyrimidine] | > 10000 | 30.9 |  |
| Cn1ncnc1Cn1nc2nc(C(C)(C)C)nc(N3CCC(F)(F)C3)c2n1 [Example 69, 5-tert-Butyl-7-(3,3-difluoro-pyrrolidin-1-yl)-2-(2-methyl-2H-[1,2,4]triazol-3-ylmethyl)-2H-[1,2,3]triazolo[4,5-d]pyrimidine] | > 10000 | 1.1 |  |
| CC(C)(C)Nc1nc(N2CCC(F)(F)C2)c2nn(Cc3ncccc3Cl)nc2n1 [Example 138, tert-Butyl-[2-(3-chloro-pyridin-2-ylmethyl)-7-(3,3-difluoro-pyrrolidin-1-yl)-2H-[1,2,3]triazolo[4,5-d]pyrimidin-5-yl]-amine] | > 10000 | 54 |  |
| Cn1ncnc1Cn1nc2nc(C(C)(C)C)nc(N3CC[C@H](O)C3)c2n1 [Example 89, (S)-1-[5-tert-Butyl-2-(2-methyl-2H-[1,2,4]triazol-3-ylmethyl)-2H-[1,2,3]triazolo[4,5-d]pyrimidin-7-yl]-pyrrolidin-3-ol] | > 10000 |  | 372 |
| Cc1noc(Cn2nc3nc(C(C)(C)C)nc(N4CC[C@H](O)C4)c3n2)n1 [Example 74, (S)-1-[5-tert-Butyl-2-(3-methyl-[1,2,4]oxadiazol-5-ylmethyl)-2H-[1,2,3]triazolo[4,5-d]pyrimidin-7-yl]-pyrrolidin-3-ol] | > 10000 | 61.3 |  |
| Cc1nnc(Cn2nc3nc(C(C)(C)C)nc(N4CC5(COC5)C4)c3n2)n1C [Example 106, 5-tert-Butyl-2-(4,5-dimethyl-4H-[1,2,4]triazol-3-ylmethyl)-7-(2-oxa-6-aza-spiro[3.3]hept-6-yl)-2H-[1,2,3]triazolo[4,5-d]pyrimidine] | > 10000 | 62.7 |  |
| Cc1nonc1Cn1nc2nc(NC(C)(C)C)nc(N3CCC(F)(F)C3)c2n1 [Example 140, tert-Butyl-[7-(3,3-difluoro-pyrrolidin-1-yl)-2-(4-methyl-furazan-3-ylmethyl)-2H-[1,2,3]triazolo[4,5-d]pyrimidin-5-yl]-amine] | > 10000 | 6.1 |  |
| CC(C)(C)c1nc(N2CCC(F)(F)C2)c2nn(Cc3c[nH]nc3C(F)(F)F)nc2n1 [Example 72, 5-tert-Butyl-7-(3,3-difluoro-pyrrolidin-1-yl)-2-(3-trifluoromethyl-1H-pyrazol-4-ylmethyl)-2H-[1,2,3]triazolo[4,5-d]pyrimidine] | > 10000 | 11.8 |  |
| CC(C)(C)c1nc(N2CCC(F)(F)C2)c2nn(Cc3cccnc3Cl)nc2n1 [Example 34, 5-tert-Butyl-2-(2-chloro-pyridin-3-ylmethyl)-7-(3,3-difluoro-pyrrolidin-1-yl)-2H-[1,2,3]triazolo[4,5-d]pyrimidine] | > 10000 | 0.5 |  |
| Cc1nonc1Cn1nc2nc(C(C)(C)C)nc(N3CC[C@](C)(O)C3)c2n1 [Example 131-a, (S)-1-[5-tert-Butyl-2-(4-methyl-furazan-3-ylmethyl)-2H-[1,2,3]triazolo[4,5-d]pyrimidin-7-yl]-3-methyl-pyrrolidin-3-ol] | > 10000 | 10.2 |  |
| Cc1nnc(Cn2nc3nc(C(C)(C)C)nc(N4CC[C@](C)(O)C4)c3n2)o1 [Example 128-a, (S)-1-[5-tert-Butyl-2-(5-methyl-[1,3,4]oxadiazol-2-ylmethyl)-2H-[1,2,3]triazolo[4,5-d]pyrimidin-7-yl]-3-methyl-pyrrolidin-3-ol] | > 10000 | 70.2 |  |
| CC(C)(C)c1nc(N2CCC(F)(F)C2)c2nn(CC3CCCCC3)nc2n1 [Example 6, 5-tert-Butyl-2-cyclohexylmethyl-7-(3,3-difluoro-pyrrolidin-1-yl)-2H-[1,2,3]triazolo[4,5-d]pyrimidine] | 306 | 0.5 |  |
| CC(=O)N[C@H]1CCN(c2nc(O[C@@H](C)C(F)(F)F)nc3nn(Cc4ccccc4Cl)nc23)C1 [Example 141, N—{(S)-1-[2-(2-Chloro-benzyl)-5-((S)-2,2,2-trifluoro-1-methyl-ethoxy)-2H-[1,2,3]triazolo[4,5-d]pyrimidin-7-yl]-pyrrolidin-3-yl}-acetamide] | > 10000 |  | 1150 |
| O[C@H]1CCN(c2nc(OCC(F)(F)F)nc3nn(Cc4ccccc4C(F)(F)F)nc23)C1 [Example 110, (S)-1-[5-(2,2,2-Trifluoro-ethoxy)-2-(2-trifluoromethyl-benzyl)-2H-[1,2,3]triazolo[4,5-d]pyrimidin-7-yl]-pyrrolidin-3-ol] | > 10000 | 60 |  |
| Cn1nncc1Cn1nc2nc(C(C)(C)C)nc(N3CC(F)(F)C(F)(F)C3)c2n1 [Example 104, 5-tert-Butyl-2-(3-methyl-3H-[1,2,3]triazol-4-ylmethyl)-7-(3,3,4,4-tetrafluoro-pyrrolidin-1-yl)-2H-[1,2,3]triazolo[4,5-d]pyrimidine] | > 10000 | 10.1 |  |
| CC(C)(C)c1nc(N2CC[C@H](O)C2)c2nn(Cc3cccc(Cl)c3Cl)nc2n1 [Example 78, (S)-1-[5-tert-Butyl-2-(2,3-dichloro-benzyl)-2H-[1,2,3]triazolo[4,5-d]pyrimidin-7-yl]-pyrrolidin-3-ol] | > 10000 | 6 |  |
| CC(C)(C)c1nc(N2CCC(F)(F)C2)c2nn(CCc3cccc(Cl)c3)nc2n1 [Example 42, 5-tert-Butyl-2-[2-(3-chloro-phenyl)-ethyl]-7-(3,3-difluoro-pyrrolidin-1-yl)-2H-[1,2,3]triazolo[4,5-d]pyrimidine] | > 10000 | 10.6 |  |
| CC(C)(C)c1nc(N2CCC(F)(F)C2)c2nn(CC(=O)c3ccccn3)nc2n1 [Example 64, 2-[5-tert-Butyl-7-(3,3-difluoro-pyrrolidin-1-yl)-[1,2,3]triazolo[4,5-d]pyrimidin-2-yl]-1-pyridin-2-yl-ethanone] | > 10000 | 2.4 |  |
| O[C@H]1CCN(c2nc(OCC(F)(F)F)nc3nn(Cc4ccccc4Cl)nc23)C1 [Example 109, (S)-1-[2-(2-Chloro-benzyl)-5-(2,2,2-trifluoro-ethoxy)-2H-[1,2,3]triazolo[4,5-d]pyrimidin-7-yl]-pyrrolidin-3-ol] | > 10000 |  | 107 |
| CC(C)(C)c1nc(N2CCC(F)(F)C2)c2nn(Cc3ccccc3Br)nc2n1 [Example 21, 2-(2-Bromo-benzyl)-5-tert-butyl-7-(3,3-difluoro-pyrrolidin-1-yl)-2H-[1,2,3]triazolo[4,5-d]pyrimidine] | 183 | 0.1 |  |
| Cn1nnnc1Cn1nc2nc(C(C)(C)C)nc(N3CC[C@@H](O)C3)c2n1 [Example 113, (R)-1-[5-tert-Butyl-2-(1-methyl-1H-tetrazol-5-ylmethyl)-2H-[1,2,3]triazolo[4,5-d]pyrimidin-7-yl]-pyrrolidin-3-ol] | > 10000 | 1660 |  |
| CC(C)(C)c1nc(N2CC[C@@](C)(O)C2)c2nn(Cc3ccccc3C(F)(F)F)nc2n1 [Example 125-b, (R)-1-[5-tert-Butyl-2-(2-trifluoromethyl-benzyl)-2H-[1,2,3]triazolo[4,5-d]pyrimidin-7-yl]-3-methyl-pyrrolidin-3-ol] | > 10000 | 3.7 |  |
